According to patent US20250120967A1, “TYROSINE KINASES INHIBITORS AND USES THEREOF” (GREAT NOVEL THERAPEUTICS BIOTECH & MEDICALS CORPORATION, priority 2023, published 2025):

Tests used:
Test in all cases: Tyrosine kinase inhibition assay
Type in all cases: biochemical
EPHB2 = target: T1, EPHB2 (Homo sapiens, UniProt P29323); conditions: single concentration 1.0 μM, read-out: percent inhibition
T1 sequence (P29323 19-1055): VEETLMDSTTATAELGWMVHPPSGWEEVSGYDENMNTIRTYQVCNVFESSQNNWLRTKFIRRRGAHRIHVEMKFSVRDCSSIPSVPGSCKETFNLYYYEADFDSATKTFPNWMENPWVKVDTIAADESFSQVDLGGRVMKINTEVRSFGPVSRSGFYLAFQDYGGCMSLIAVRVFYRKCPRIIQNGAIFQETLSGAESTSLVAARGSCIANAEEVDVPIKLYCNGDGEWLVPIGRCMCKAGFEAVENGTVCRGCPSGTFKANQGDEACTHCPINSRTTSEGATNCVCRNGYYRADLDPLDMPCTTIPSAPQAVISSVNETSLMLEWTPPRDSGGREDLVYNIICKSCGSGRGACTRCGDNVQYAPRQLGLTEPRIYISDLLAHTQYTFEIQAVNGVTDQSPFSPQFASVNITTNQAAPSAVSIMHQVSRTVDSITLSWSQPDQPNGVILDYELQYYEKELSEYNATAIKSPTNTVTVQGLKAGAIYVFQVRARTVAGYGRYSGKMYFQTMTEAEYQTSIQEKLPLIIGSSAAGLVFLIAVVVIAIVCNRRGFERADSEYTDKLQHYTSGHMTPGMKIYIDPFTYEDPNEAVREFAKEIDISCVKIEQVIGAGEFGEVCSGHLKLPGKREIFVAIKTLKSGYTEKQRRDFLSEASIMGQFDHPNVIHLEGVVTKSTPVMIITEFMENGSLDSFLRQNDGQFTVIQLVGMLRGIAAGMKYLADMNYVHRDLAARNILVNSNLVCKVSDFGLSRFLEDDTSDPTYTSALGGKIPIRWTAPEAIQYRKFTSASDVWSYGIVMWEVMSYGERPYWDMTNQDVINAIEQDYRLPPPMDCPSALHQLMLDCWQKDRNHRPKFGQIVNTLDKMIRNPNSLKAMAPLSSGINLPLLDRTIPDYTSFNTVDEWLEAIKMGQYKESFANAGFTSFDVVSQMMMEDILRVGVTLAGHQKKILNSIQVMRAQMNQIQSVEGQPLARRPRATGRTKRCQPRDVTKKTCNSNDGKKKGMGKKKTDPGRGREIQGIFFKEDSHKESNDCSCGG
Procedure: (§1) Tyrosine kinase inhibition assays were performed at ThermoFisher Life Technologies (Madison, WI, USA) using standard protocols (SelectScreen Biochemical Profiling Service, Thermo Fisher Scientific). ATP concentrations used were at the apparent Km. Test compounds were screened in 1% dimethylsulffoxide (DMSO) (final concentration) in the well. For 10-point titrations, 3-fold serial dilutions were conducted from the starting concentration of […]. All Peptide/Kinase Mixtures were diluted to a 2× working concentration in the appropriate Kinase Buffer. All ATP Solutions were diluted to a 4× working concentration in Kinase Buffer (50 mM HEPES pH 7.5, 0.01% BRIJ-35, 10 mM MgCl2, 1 mM EGTA). The apparent ATP Km was previously determined using a Z′-LYTE assay. The Development Reagent was diluted in Development Buffer.
The inhibition activities of compounds were determined in biochemical assays using single concentration (1.0 μM) measurements. The results were provided as percent inhibition values. […] 99 different tyrosine kinases were used.

AXL = target: T2, AXL (Homo sapiens, UniProt P30530); conditions: for inhibition at 1 µM: single concentration 1.0 μM, read-out: percent inhibition; for IC50: read-out: IC50 of compound
T2 sequence (P30530 26-894): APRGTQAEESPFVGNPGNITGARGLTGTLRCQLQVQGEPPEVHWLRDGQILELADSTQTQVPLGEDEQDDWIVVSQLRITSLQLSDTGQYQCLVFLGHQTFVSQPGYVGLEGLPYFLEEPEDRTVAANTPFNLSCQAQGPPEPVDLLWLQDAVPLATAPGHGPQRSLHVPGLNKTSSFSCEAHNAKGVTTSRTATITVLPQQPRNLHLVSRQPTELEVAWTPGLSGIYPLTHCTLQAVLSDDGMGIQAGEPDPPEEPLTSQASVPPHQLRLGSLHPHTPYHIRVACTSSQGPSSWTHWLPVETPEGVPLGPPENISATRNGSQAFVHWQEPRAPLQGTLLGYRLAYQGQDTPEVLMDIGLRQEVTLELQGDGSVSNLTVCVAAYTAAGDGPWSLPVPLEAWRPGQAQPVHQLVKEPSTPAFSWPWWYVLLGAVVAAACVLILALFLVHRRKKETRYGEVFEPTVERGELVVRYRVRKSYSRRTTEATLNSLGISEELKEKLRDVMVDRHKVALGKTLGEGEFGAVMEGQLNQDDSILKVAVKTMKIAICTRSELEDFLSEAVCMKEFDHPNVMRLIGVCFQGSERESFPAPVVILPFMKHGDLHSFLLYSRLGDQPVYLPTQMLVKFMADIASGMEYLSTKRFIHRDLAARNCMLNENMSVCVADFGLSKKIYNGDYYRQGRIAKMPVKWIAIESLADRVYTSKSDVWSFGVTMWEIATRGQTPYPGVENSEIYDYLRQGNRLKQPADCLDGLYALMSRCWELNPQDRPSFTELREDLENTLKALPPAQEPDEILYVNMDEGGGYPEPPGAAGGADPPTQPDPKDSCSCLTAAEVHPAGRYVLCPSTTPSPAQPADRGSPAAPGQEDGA
Procedure: as §1
(§2) The inhibition activities of compounds were determined in biochemical assays using single concentration (1.0 μM) measurements. The results were provided as percent inhibition values.

KDR (VEGFR2) = KDR (VEGFR2) (Homo sapiens, UniProt P35968); conditions: for inhibition at 1 µM: single concentration 1.0 μM, read-out: percent inhibition; for IC50: read-out: IC50 of compound
Sequence of KDR (VEGFR2) (P35968 20-1356): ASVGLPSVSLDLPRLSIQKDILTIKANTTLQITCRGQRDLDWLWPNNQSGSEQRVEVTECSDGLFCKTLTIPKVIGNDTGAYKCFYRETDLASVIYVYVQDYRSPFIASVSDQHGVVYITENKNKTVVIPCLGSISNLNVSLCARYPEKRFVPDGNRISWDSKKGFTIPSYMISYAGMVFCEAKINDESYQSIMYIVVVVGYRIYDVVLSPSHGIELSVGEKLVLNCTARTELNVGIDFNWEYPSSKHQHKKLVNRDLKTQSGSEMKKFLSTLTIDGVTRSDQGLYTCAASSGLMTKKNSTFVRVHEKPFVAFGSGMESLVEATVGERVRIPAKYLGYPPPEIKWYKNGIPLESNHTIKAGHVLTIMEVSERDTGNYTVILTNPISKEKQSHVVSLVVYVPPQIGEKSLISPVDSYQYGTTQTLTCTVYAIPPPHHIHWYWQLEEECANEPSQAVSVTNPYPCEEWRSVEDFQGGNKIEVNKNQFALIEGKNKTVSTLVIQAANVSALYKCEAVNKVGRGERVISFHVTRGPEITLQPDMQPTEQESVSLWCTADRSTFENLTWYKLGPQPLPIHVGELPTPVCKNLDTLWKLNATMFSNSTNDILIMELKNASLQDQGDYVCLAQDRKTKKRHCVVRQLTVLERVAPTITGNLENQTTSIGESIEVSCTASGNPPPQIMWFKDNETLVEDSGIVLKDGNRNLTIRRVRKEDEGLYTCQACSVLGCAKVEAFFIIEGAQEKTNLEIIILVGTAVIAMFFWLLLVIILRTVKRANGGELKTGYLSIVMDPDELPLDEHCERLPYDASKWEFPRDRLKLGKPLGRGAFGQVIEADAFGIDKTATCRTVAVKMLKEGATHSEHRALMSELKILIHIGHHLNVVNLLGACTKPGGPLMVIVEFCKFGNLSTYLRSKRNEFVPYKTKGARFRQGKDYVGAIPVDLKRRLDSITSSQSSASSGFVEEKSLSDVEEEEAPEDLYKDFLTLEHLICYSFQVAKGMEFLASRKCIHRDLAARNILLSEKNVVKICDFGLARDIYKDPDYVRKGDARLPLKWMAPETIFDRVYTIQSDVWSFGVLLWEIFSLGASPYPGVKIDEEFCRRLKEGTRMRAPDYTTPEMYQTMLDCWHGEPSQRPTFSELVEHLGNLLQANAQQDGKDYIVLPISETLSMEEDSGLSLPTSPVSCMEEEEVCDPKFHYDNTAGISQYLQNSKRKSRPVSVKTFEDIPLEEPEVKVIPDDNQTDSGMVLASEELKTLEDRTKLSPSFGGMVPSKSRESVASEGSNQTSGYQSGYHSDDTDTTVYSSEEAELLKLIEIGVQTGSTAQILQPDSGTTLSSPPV
Procedure: as §1, §2

Compound	inhibition at 1 µM (EPHB2)	inhibition at 1 µM (AXL)	inhibition at 1 µM (KDR (VEGFR2))	IC50 (AXL)	IC50 (KDR (VEGFR2))
COc1cc2nccc(Oc3ccc(NC(=O)C4(NC(=O)c5ccc(F)cc5)CC4)cc3F)c2cc1OC [Cbo-02, N-(1-((4-((6,7-diMethoxyquinolin-4-yl)oxy)-3-fluorophenyl)carbamoyl)cyclopropyl)-4-fluorobenzamide]	13%	91%	96%		
COc1cc2nccc(Oc3ccc(NC(=O)C4(NC(=O)c5ccc(F)cc5)CC4)cc3F)c2cc1Oc1ccc(N)cc1F [Cbo-10]	64%	98%	98%		
COc1cc2nccc(Oc3ccc(NC(=O)C4(NC(=O)c5ccc(F)cc5)CC4)cc3F)c2cc1Oc1c(F)cc(N)cc1F [Cbo-14]	77%	96%	100%		
COc1cc2nccc(Oc3ccc(NC(=O)C4(C(=O)Nc5ccc(F)cc5)CC4)cc3F)c2cc1Oc1ccc(N)cc1F [Cbo-23]	100%	106%	98%	5.42 nM	29.2 nM
CNC(=O)c1cc2c(Oc3ccc(NC(=O)C4(C(=O)Nc5ccc(F)cc5)CC4)cc3)ccnc2cc1OC [Zanzalintinib, reference compound]				1.41 nM	2.43 nM
